Laboratory results as given in PubChem BioAssay AID1918958 (Molecular Pharmacology Branch, DTP, NCI, 2023).
Where “and” joins values, the source holds several entries; their conditions need not be identical. Identical values can stand only once.

Tested on: NCI-H196 complex spheroid viability
Assay: Anticancer human tumor NCI-H196 cell line growth inhibition [LSD1];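 also: spheroids exposed to agents for 7 days before readout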;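 as to viability, T/C: 100% = DMSO vehicle control viability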
Settings: for viability, T/C: stronger effect = lower value
Description: Multicellular complex tumor spheroid response to LSD1 Inhibitor Iadademstat in combination with a variety of drugs and investigational agents in selected tumor cell lines
The current study was undertaken to assess response to LSD1 inhibitors in combination with standard-of-care drugs and investigational agents in solid tumor complex spheroid models as well as in the K-562 leukemia. Complex spheroids include a stromal component modeled by human endothelial cells (HUVEC) and fibroblasts modeled by human mesenchymal stem cells (MSCs). The concentration ranges selected for each drug and investigational agent were based upon clinically achievable concentrations if the clinical Cmax of the agent was known.
Compounds. The drugs and investigational agents used in this study are listed on Table 1. All of the agents used, including staurosporine (NSC755774) and gemcitabine (NSC613327), were obtained from the Developmental Therapeutics Program, NCI. FDA-approved anticancer drugs are available from the NCI at http://dtp.nci.nih.gov/branches/dscb/oncology_drugset_explanation.html. Drugs and investigational agents were >95% pure by proton nuclear magnetic resonance (NMR) and liquid chromatography/mass spectrometry (LC/MS). Stock solutions were prepared at 400x in DMSO, stored at -70 degrees C, and diluted in fresh medium prior to their use. The final concentration of DMSO in cell culture wells never exceeded 0.25% (v/v). The FDA-approved anticancer drug set is available from the Developmental Therapeutics Program at https://dtp.cancer.gov/organization/dscb/obtaining/available_plates.htm. All drugs and investigational agents were tested over a range starting from a high concentration at or near the clinical Cmax and decreasing in half-log increments. If the clinical Cmax for an agent had not been determined, the highest concentration tested was 10 microM.
Cell Lines. The patient-derived cancer cell (PDC) lines: 292921-168-R-J2-PDC, K24384-001-R-PDC, and 521955-158-R2-J5-PDC pancreatic carcinomas, 556581-035-R-J1 ovarian carcinoma, 324938-238-R-J1-PDC, 855422-203-R-J1-PDC and 883617-216-R-J1-PDC urothelial bladder carcinomas, 743489-274-T-PDC renal cell carcinoma, 138582-R-J1 Merkel cell tumor, K60290-347-R-J1 and K57222-313-R-J1-PDC glioblastomas, 653999-131-R-J2-PDC, LG0703-F948-PDC, and 349418-098-R-PDC non-small cell lung carcinomas, 885512-296-R-J2-PDC, 171881-019-R-J1-PDC breast carcinomas and 186277-243-T-J2-PDC and 233499-124-R-J2-PDC colon carcinomas were obtained from the NCI Patient-Derived Models Repository (PDMR, https://pdmr.cancer.gov). The established cell lines NCI/ADR-RES (RRID:CVCL_14520 and OVCAR-5 (RRID:CVCL_1628) ovarian carcinomas, 786-O (RRID:CVCL_1051) and A498 (RRID:CVCL_A498) renal cell carcinoma, NCI-H211 (ATCC, cat. CRL-5824; RRID:CVCL_1529), NCI-H196 (ATCC, cat. CRL-5823, RRID:CVCL_1509), SW 1271 (ATCC, cat. CRL-2177, RRID:CVCL_1716) and NCI-H1876 (ATCC, cat. CRL-5902, RRID:CVCL_1503) small cell lung carcinomas, MDA-MB-231 (RRID:CVCL_0062) and MDA-MB-468 (RRID:CVCL_0419)breast carcinomas (10-12). Pooled donor human umbilical vein endothelial cells (HUVEC, Lonza, cat. CC-2519) and human mesenchymal stem cells (hMSC, Lonza, cat. PT-2501) were purchased from Lonza (Walkersville, MD).
Cell Culture. All cells were maintained in an incubator at 37 degrees C and 5% CO2 with 95% humidity. The PDC lines were cultured according to standard operating procedures established by the NCI PDMR (https://pdmr.cancer.gov). Briefly all PDCs were thawed and cultured in Matrigel-coated flasks prepared with a working solution of 1X Ham's F-12 nutrient mix, without supplementation (Invitrogen, Waltham, MA, cat. 11765054), 100 U/mL penicillin-streptomycin (Invitrogen, cat. 15140122), and 2.5% Matrigel (Corning Inc., Corning, NY, cat. 354248) for the first three passages. […]

[1] = curve of first compound, second compound 0.1 µM
[2] = curve of first compound, second compound 0.316 µM
[3] = curve of first compound, second compound 1 µM
[4] = curve of first compound, second compound 3.16 µM
[5] = curve of first compound, second compound 10 µM
[6] = second compound 0.1 µM, first compound 0.0316 µM
[7] = second compound 0.1 µM, first compound 0.1 µM
[8] = second compound 0.1 µM, first compound 0.316 µM
[9] = second compound 0.1 µM, first compound 1 µM
[10] = second compound 0.1 µM, first compound 3.16 µM
[11] = second compound 0.1 µM, first compound 10 µM
[12] = second compound 0.316 µM, first compound 0.0316 µM
[13] = second compound 0.316 µM, first compound 0.1 µM
[14] = second compound 0.316 µM, first compound 0.316 µM
[15] = second compound 0.316 µM, first compound 1 µM
[16] = second compound 0.316 µM, first compound 3.16 µM
[17] = second compound 0.316 µM, first compound 10 µM
[18] = second compound 1 µM, first compound 0.0316 µM
[19] = second compound 1 µM, first compound 0.1 µM
[20] = second compound 1 µM, first compound 0.316 µM
[21] = second compound 1 µM, first compound 1 µM
[22] = second compound 1 µM, first compound 3.16 µM
[23] = second compound 1 µM, first compound 10 µM
[24] = second compound 3.16 µM, first compound 0.0316 µM
[25] = second compound 3.16 µM, first compound 0.1 µM
[26] = second compound 3.16 µM, first compound 0.316 µM
[27] = second compound 3.16 µM, first compound 1 µM
[28] = second compound 3.16 µM, first compound 3.16 µM
[29] = second compound 3.16 µM, first compound 10 µM
[30] = second compound 10 µM, first compound 0.0316 µM
[31] = second compound 10 µM, first compound 0.1 µM
[32] = second compound 10 µM, first compound 0.316 µM
[33] = second compound 10 µM, first compound 1 µM
[34] = second compound 10 µM, first compound 3.16 µM
[35] = second compound 10 µM, first compound 10 µM

O=C(c1cc(Cc2n[nH]c(=O)c3ccccc23)ccc1F)N1CCN(C(=O)C2CC2)CC1
viability, T/C (compound 0.0316 µM): 91.2% and 89.6%
viability, T/C (compound 0.1 µM): 93.7% and 93.2%
viability, T/C (compound 0.316 µM): 91.9% and 90%
viability, T/C (compound 1 µM): 94% and 84.9%
viability, T/C (compound 3.16 µM): 89.9% and 91.9%
viability, T/C (compound 10 µM): 95.3% and 95.9%
IC50 (curve of compound): > 10 µM

CCN(c1cc(-c2ccc(CN3CCOCC3)cc2)cc(C(=O)NCc2c(C)cc(C)[nH]c2=O)c1C)C1CCOCC1 + NC1CC1c1ccc(-c2cccc(O)c2)cc1
IC50 [1]: > 3 µM
IC50 [2]: > 3 µM
IC50 [3]: > 3 µM
IC50 [4]: > 3 µM
IC50 [5]: > 3 µM
viability, T/C (second compound 0.1 µM, first compound 0.00949 µM): 93.6%
viability, T/C (second compound 0.1 µM, first compound 0.03 µM): 91.8%
viability, T/C (second compound 0.1 µM, first compound 0.0949 µM): 98%
viability, T/C (second compound 0.1 µM, first compound 0.3 µM): 108%
viability, T/C (second compound 0.1 µM, first compound 0.949 µM): 107%
viability, T/C (second compound 0.1 µM, first compound 3 µM): 118%
viability, T/C (second compound 0.316 µM, first compound 0.00949 µM): 94.5%
viability, T/C (second compound 0.316 µM, first compound 0.03 µM): 97.8%
viability, T/C (second compound 0.316 µM, first compound 0.0949 µM): 113%
viability, T/C (second compound 0.316 µM, first compound 0.3 µM): 104%
viability, T/C (second compound 0.316 µM, first compound 0.949 µM): 110%
viability, T/C (second compound 0.316 µM, first compound 3 µM): 110%
viability, T/C (second compound 1 µM, first compound 0.00949 µM): 97.4%
viability, T/C (second compound 1 µM, first compound 0.03 µM): 102%
viability, T/C (second compound 1 µM, first compound 0.0949 µM): 102%
viability, T/C (second compound 1 µM, first compound 0.3 µM): 106%
viability, T/C (second compound 1 µM, first compound 0.949 µM): 116%
viability, T/C (second compound 1 µM, first compound 3 µM): 112%
viability, T/C (second compound 3.16 µM, first compound 0.00949 µM): 98.4%
viability, T/C (second compound 3.16 µM, first compound 0.03 µM): 99%
viability, T/C (second compound 3.16 µM, first compound 0.0949 µM): 101%
viability, T/C (second compound 3.16 µM, first compound 0.3 µM): 102%
viability, T/C (second compound 3.16 µM, first compound 0.949 µM): 98.9%
viability, T/C (second compound 3.16 µM, first compound 3 µM): 103%
viability, T/C (second compound 10 µM, first compound 0.00949 µM): 98.6%
viability, T/C (second compound 10 µM, first compound 0.03 µM): 109%
viability, T/C (second compound 10 µM, first compound 0.0949 µM): 104%
viability, T/C (second compound 10 µM, first compound 0.3 µM): 104%
viability, T/C (second compound 10 µM, first compound 0.949 µM): 105%
viability, T/C (second compound 10 µM, first compound 3 µM): 92.9%

NC1CCC(NC2CC2c2ccccc2)CC1 (configuration not stated)
viability, T/C (compound 0.316 µM): 93.8% and 93%
viability, T/C (compound 1 µM): 96.9% [middle of 25 runs]
viability, T/C (compound 3.16 µM): 97.9% [middle of 25 runs]
viability, T/C (compound 10 µM): 97.5% [middle of 23 runs]
IC50 (compound alone, run of 02/15/2022): > 10 µM

CC(C)c1c(-c2ccccc2)nc2c(C#N)c[nH]n2c1=O + NC1CC1c1ccc(-c2cccc(O)c2)cc1
IC50 [1]: > 10 µM
IC50 [2]: > 10 µM
IC50 [3]: > 10 µM
IC50 [4]: > 10 µM
IC50 [5]: > 10 µM
viability, T/C [6]: 87.2%
viability, T/C [7]: 96.8%
viability, T/C [8]: 88.4%
viability, T/C [9]: 83.5%
viability, T/C [10]: 93.1%
viability, T/C [11]: 90.1%
viability, T/C [12]: 92.7%
viability, T/C [13]: 102%
viability, T/C [14]: 98%
viability, T/C [15]: 89.4%
viability, T/C [16]: 94.6%
viability, T/C [17]: 88.2%
viability, T/C [18]: 96.7%
viability, T/C [19]: 95%
viability, T/C [20]: 91.1%
viability, T/C [21]: 96.7%
viability, T/C [22]: 104%
viability, T/C [23]: 79.8%
viability, T/C [24]: 101%
viability, T/C [25]: 88.5%
viability, T/C [26]: 95.3%
viability, T/C [27]: 96.2%
viability, T/C [28]: 91.6%
viability, T/C [29]: 94.1%
viability, T/C [30]: 103%
viability, T/C [31]: 92.6%
viability, T/C [32]: 93.1%
viability, T/C [33]: 88.4%
viability, T/C [34]: 86.3%
viability, T/C [35]: 88%

CC(C)c1c(-c2ccccc2)nc2c(C#N)c[nH]n2c1=O + NC1CCC(NC2CC2c2ccccc2)CC1
IC50 [1]: > 10 µM
IC50 [2]: > 10 µM
IC50 [3]: > 10 µM
IC50 [4]: > 10 µM
IC50 [5]: > 10 µM
viability, T/C [6]: 104%
viability, T/C [7]: 105%
viability, T/C [8]: 114%
viability, T/C [9]: 94.2%
viability, T/C [10]: 90.7%
viability, T/C [11]: 95.6%
viability, T/C [12]: 101%
viability, T/C [13]: 101%
viability, T/C [14]: 107%
viability, T/C [15]: 98.2%
viability, T/C [16]: 90%
viability, T/C [17]: 84.9%
viability, T/C [18]: 97.4%
viability, T/C [19]: 93.3%
viability, T/C [20]: 96.4%
viability, T/C [21]: 94.1%
viability, T/C [22]: 91.7%
viability, T/C [23]: 90.7%
viability, T/C [24]: 97.7%
viability, T/C [25]: 104%
viability, T/C [26]: 98.5%
viability, T/C [27]: 93.4%
viability, T/C [28]: 94.3%
viability, T/C [29]: 88%
viability, T/C [30]: 98.7%
viability, T/C [31]: 97.1%
viability, T/C [32]: 99.1%
viability, T/C [33]: 102%
viability, T/C [34]: 83.4%
viability, T/C [35]: 89%
